Values after ≈ are worked out from the molar mass of the structure shown. Read-outs that look alike come from different tables or passages of the source. Where a SMILES comes first, the peptide text is derived from it. Bridges are numbered along the chain shown (N, C = ends). [ ]: non-standard residue; d: D form. The star is where a group is joined. X1 = CC[C@H](C)CCCCC(=O)*; Dab = NCC[C@H](N)C(=O)O
Tests used:
[1] = system: P. aeruginosa; experiment: Susceptibility of clinical isolates (VITEK 2; MIC by broth dilution on microplate); format: cell-based, Pseudomonas aeruginosa; conditions: for MIC: Pseudomonas aeruginosa, broth dilution
From the text: (§1) The bacterial isolates were recovered in MacConkey agar (Oxoid-Thermo Scientific®, Hampshire, UK) and sent to the Bacterial Molecular Genetics Laboratory in AMIES transport media (COPAN). […] The MICs of meropenem, amikacin, and colistin were established by the broth dilution method on a microplate. E. coli ATCC® 25922^TM and P. aeruginosa ATCC® 27853^TM strains was used as a susceptibility control (American Type Culture Collection). Finally, the carbapenemase genes blaIMP, blaOXA-48, blaVIM, blaGES, blaKPC, and blaNDM were assessed by multiplex PCR [45].

[2] = system: K. pneumoniae; experiment: as above; format: cell-based, Klebsiella pneumoniae; conditions: for MIC: Klebsiella pneumoniae, broth dilution, read-out: highest MIC
From the text: as §1

[3] = system: P. putida; experiment: as above; format: cell-based, Pseudomonas putida
From the text: as §1

[4] = system: A. baumannii; experiment: as above; format: cell-based, Acinetobacter baumannii; conditions: for isolates I (intermediate), n (%) / isolates R (resistant), n (%) / isolates S (susceptible), n (%): n = 1, favorable outcome; for MIC: Acinetobacter baumannii, broth dilution, one isolate
From the text: as §1

[5] = system: E. cloacae; experiment: as above; format: cell-based, Enterobacter cloacae; conditions: for isolates I (intermediate), n (%) / isolates R (resistant), n (%) / isolates S (susceptible), n (%): n = 1, favorable outcome
From the text: as §1

[6] = system: E. coli; experiment: as above; format: cell-based, Escherichia coli; conditions: n = 1, favorable outcome
From the text: as §1

[7] = system: C. freundii; experiment: as above; format: cell-based; conditions: n = 1, unfavorable outcome
From the text: as §1

[8] = clinical; conditions: human, in vivo, plasma Cmin, fourth day of treatment, HPLC-UV, median (IQR), read-out: Colistin levels, Median, IQR
Method: The doses were prescribed by the treating physician based on the institution’s drug-therapeutic guidelines (load of 1 mg/kg and maintenance of 3 mg/kg per day, divided into three doses). Measurement of the colistin concentration in plasma was performed on the fourth day of treatment, when it was assumed that the colistin concentrations would have reached a steady state. Colistin plasma concentrations (Cmin) were measured just before CMS administration. Cmin was chosen because it is more convenient from a practical point of view. Clinical outcomes were classified as (a) favorable (absence of fever (T < 38 °C); leukocytosis <12,000; not requiring vasopressors; in infections in which control cultures could be obtained, these cultures must be sterile within 7 days of treatment and without changes in the initial antimicrobial regimen within of the first 7 days of treatment. In addition, mortality at 30 days was measured as a secondary outcome; or (b) unfavorable (in the case of fever > 38 °C; leukocytosis > 12,000; requirement for a vasopressor or the presence of positive control cultures for the initial microorganism). The clinical outcomes were determined by consensus of at least two physicians on the study team. If all the criteria were met, the patient was assigned as having a favorable outcome; if one criterion was not met, the outcome was considered not favorable. […]

[9] = system: multiresistant Gram-negative carbapenemase-producing bacteria; experiment: Clinical outcome at day 7 and 30-day mortality in patients treated with CMS; format: in vivo, human
Method: This prospective observational study was conducted from September 2017 and June 2020 at a university clinic in the Hospitalization and Critical Care services. The participation of patients in the study was according to the proposed inclusion criteria. Patients over 18 years old, hospitalized for infections caused by multiresistant Gram-negative carbapenemase-producing bacteria, diagnosed in hospital at the clinic of the University of La Sabana, who had been treated with CMS for at least 7 days at the institution, were included. […] Detailed demographic (age, sex, weight), clinical (site of infection, severity of disease, comorbidities (Charlson comorbidity index), CMS loading dose, CMS maintenance dose, duration of treatment, days of stay in the hospital, mortality, carbapenemase class, concomitant antibiotic therapy), laboratory (hemoglobin, red blood cell, neutrophil and platelet counts, serum creatinine and glomerular filtration rate (GFR)), and microbiological (bacterial isolation and characterization) data from each patient were recorded.
The doses were prescribed by the treating physician based on the institution’s drug-therapeutic guidelines (load of 1 mg/kg and maintenance of 3 mg/kg per day, divided into three doses). Measurement of the colistin concentration in plasma was performed on the fourth day of treatment, when it was assumed that the colistin concentrations would have reached a steady state. Colistin plasma concentrations (Cmin) were measured just before CMS administration. Cmin was chosen because it is more convenient from a practical point of view. Clinical outcomes were classified as (a) favorable (absence of fever (T < 38 °C); leukocytosis <12,000; not requiring vasopressors; in infections in which control cultures could be obtained, these cultures must be sterile within 7 days of treatment and without changes in the initial antimicrobial regimen within of the first 7 days of treatment. In addition, mortality at 30 days was measured as a secondary outcome; or (b) unfavorable (in the case of fever > 38 °C; leukocytosis > 12,000; requirement for a vasopressor or the presence of positive control cultures for the initial microorganism). The clinical outcomes were determined by consensus of at least two physicians on the study team. If all the criteria were met, the patient was assigned as having a favorable outcome; if one criterion was not met, the outcome was considered not favorable.

[10] = Acute kidney injury / renal failure (serum creatinine increase above 0.3 mg/dl in 48 h) by colistin level; format: in vivo, human; conditions: high colistin levels n = 2
Method: Regarding the incidence of renal failure, defined as an increase in serum creatinine above 0.3 mg/dl in 48 h, this occurred in 20.7% of patients with low colistin levels, in 50% of patients with normal colistin levels, and in 50% of patients with high colistin levels (Table 5).

[11] = cited from earlier work
From the text: Colistin has been clinically available since the 1950s, but it soon fell into disuse, mainly due to its nephrotoxic potential. Alongside its nephrotoxicity, which ranges between 0 and 58% in different studies, some evidence has found the incidence of peripheral neuropathy may be up to 50% with its use, as the main manifestation of neurotoxicity. The lack of other available options has increased the use of colistin in MDR infections, even with its safety profile. The pharmacokinetics of colistin are complex. Colistin is available as a sulfate and as sodium colis ...

[12] = isolates from patients with favorable outcome n = 10
[13] = isolates from patients with unfavorable outcome n = 14

Compound	isolates I (intermediate), n (%) [1, 12]	isolates R (resistant), n (%) [1, 12]	isolates S (susceptible), n (%) [1, 12]	isolates I (intermediate), n (%) [1, 13]	isolates R (resistant), n (%) [1, 13]	isolates S (susceptible), n (%) [1, 13]	isolates I (intermediate), n (%) ([2]; favorable outcome n = 3)	isolates R (resistant), n (%) ([2]; favorable outcome n = 3)	isolates S (susceptible), n (%) ([2]; favorable outcome n = 3)	isolates I (intermediate), n (%) ([2]; unfavorable outcome n = 2)	isolates R (resistant), n (%) ([2]; unfavorable outcome n = 2)	isolates S (susceptible), n (%) ([2]; unfavorable outcome n = 2)	isolates I (intermediate), n (%) ([3]; favorable outcome n = 1)	isolates R (resistant), n (%) ([3]; favorable outcome n = 1)	isolates S (susceptible), n (%) ([3]; favorable outcome n = 1)	isolates I (intermediate), n (%) ([3]; unfavorable outcome n = 1)	isolates R (resistant), n (%) ([3]; unfavorable outcome n = 1)	isolates S (susceptible), n (%) ([3]; unfavorable outcome n = 1)	isolates I (intermediate), n (%) [4]	isolates R (resistant), n (%) [4]	also measured
CN(C)c1cc(NC(=O)CNC(C)(C)C)c(O)c2c1C[C@H]1C[C@H]3[C@H](N(C)C)C(O)=C(C(N)=O)C(=O)[C@@]3(O)C(O)=C1C2=O [Glycylcyclines, tigecycline]	0 (0) n (%)	9 (90) n (%)	0 (0) n (%)	0 (0) n (%)	11 (78.6) n (%)	0 (0) n (%)	0 (0) n (%)	0 (0) n (%)	1 (33.3) n (%)	0 (0) n (%)	0 (0) n (%)	2 (100) n (%)	1 (100) n (%)	0 (0) n (%)	0 (0) n (%)	0 (0) n (%)	0 (0) n (%)	1 (100) n (%)	0 (0) n (%)	0 (0) n (%)	isolates S (susceptible), n (%) [4]: 1 (100) n (%); isolates I (intermediate), n (%) [5]: 0 (0) n (%); isolates R (resistant), n (%) [5]: 0 (0) n (%); isolates S (susceptible), n (%) [5]: 1 (100) n (%); isolates I (intermediate), n (%) [6]: 0 (0) n (%); isolates R (resistant), n (%) [6]: 0 (0) n (%); isolates S (susceptible), n (%) [6]: 1 (100) n (%); isolates I (intermediate), n (%) [7]: 1 (100) n (%); isolates R (resistant), n (%) [7]: 0 (0) n (%); isolates S (susceptible), n (%) [7]: 0 (0) n (%)
NCC[C@H](O)C(=O)N[C@@H]1C[C@H](N)[C@@H](O[C@H]2O[C@H](CN)[C@@H](O)[C@H](O)[C@H]2O)[C@H](O)[C@H]1O[C@H]1O[C@H](CO)[C@@H](O)[C@H](N)[C@H]1O [amikacin]	–	–	–	–	–	–	–	–	–	–	–	–	–	–	–	–	–	–	–	–	MIC ([1]; established in 23.3% of isolates, read-out: highest MIC): 128 µg/mL (≈ 219 µM); MIC [2]: 64 µg/mL (≈ 109 µM); MIC [4]: 64 µg/mL (≈ 109 µM)
CC[C@H](C)CCCCC(=O)N[C@@H](CCN)C(=O)N[C@H](C(=O)N[C@@H](CCN)C(=O)N[C@H]1CCNC(=O)[C@H]([C@@H](C)O)NC(=O)[C@H](CCN)NC(=O)[C@H](CCN)NC(=O)[C@H](CC(C)C)NC(=O)[C@@H](CC(C)C)NC(=O)[C@H](CCN)NC1=O)[C@@H](C)O [colistin] (X1-[Dab]T[Dab][Dab][Dab][dL]L[Dab][Dab]T; lactam 4-C)	4 (40) n (%)	4 (40) n (%)	2 (20) n (%)	6 (42.8) n (%)	7 (50) n (%)	1 (7.14) n (%)	1 (33.3) n (%)	2 (66.7) n (%)	0 (0) n (%)	0 (0) n (%)	0 (0) n (%)	2 (100) n (%)	1 (100) n (%)	0 (0) n (%)	0 (0) n (%)	0 (0) n (%)	0 (0) n (%)	1 (100) n (%)	1 (100) n (%)	0 (0) n (%)	level at 96 h ([8]; favorable clinical outcome n = 34, p = 0.167 vs unfavorable): 160 ng/mL; level at 96 h ([8]; unfavorable clinical outcome n = 23): 540 ng/mL; 30 days mortality, n, % ([9]; high colistin levels n = 2 (>4 µg/mL)): 0 (0%) n, %; 30 days mortality, n, % ([9]; normal colistin levels n = 2 (2 to 4 µg/mL)): 0 (0%) n, %; Favorable clinical outcomes ([9]; patients with colistin levels within the normal range): 50%; Favorable clinical outcomes ([9]; patients with levels above the limit of normality): 50%; Favorable clinical outcomes ([9]; patients with low colistin levels): 60%; Acute kidney injury, n, % [10]: 1 (50%) n, %; isolates S (susceptible), n (%) [4]: 0 (0) n (%); isolates I (intermediate), n (%) [5]: 0 (0) n (%); isolates R (resistant), n (%) [5]: 1 (100) n (%); isolates S (susceptible), n (%) [5]: 0 (0) n (%); isolates I (intermediate), n (%) [6]: 1 (100) n (%); isolates R (resistant), n (%) [6]: 0 (0) n (%); isolates S (susceptible), n (%) [6]: 0 (0) n (%); isolates I (intermediate), n (%) [7]: 1 (100) n (%); isolates R (resistant), n (%) [7]: 0 (0) n (%); isolates S (susceptible), n (%) [7]: 0 (0) n (%); calculated volume of distribution [11]: 0.34 L/kg; half-life [11]: 4.18 h
C[C@@H](O)[C@H]1C(=O)N2C(C(=O)O)=C(S[C@@H]3CN[C@H](C(=O)N(C)C)C3)[C@H](C)[C@H]12 [meropenem]	–	–	–	–	–	–	–	–	–	–	–	–	–	–	–	–	–	–	–	–	MIC ([1]; found in 56.7% of isolates, 88.2% of which harbored KPC and VIM, read-out: MIC): > 1020 µg/mL; MIC [2]: 32 µg/mL (≈ 83.4 µM); MIC ([3]; Pseudomonas putida, broth dilution, one isolate): > 1020 µg/mL; MIC [4]: 64 µg/mL (≈ 167 µM); MIC ([5]; Enterobacter cloacae, broth dilution, read-out: highest MIC): 32 µg/mL (≈ 83.4 µM)
colistimethate sodium [CMS]	–	–	–	–	–	–	–	–	–	–	–	–	–	–	–	–	–	–	–	–	half-life ([11]; in vivo): 2.07 h
